For this assay, the target named is T1, P. falciparum falcipain-2 (Plasmodium falciparum, UniProt Q8I6U4).
T1 construct: Recombinant falcipain-2 (30 nM) was incubated for 30 min at room temperature
T1 sequence (Q8I6U4 244-484): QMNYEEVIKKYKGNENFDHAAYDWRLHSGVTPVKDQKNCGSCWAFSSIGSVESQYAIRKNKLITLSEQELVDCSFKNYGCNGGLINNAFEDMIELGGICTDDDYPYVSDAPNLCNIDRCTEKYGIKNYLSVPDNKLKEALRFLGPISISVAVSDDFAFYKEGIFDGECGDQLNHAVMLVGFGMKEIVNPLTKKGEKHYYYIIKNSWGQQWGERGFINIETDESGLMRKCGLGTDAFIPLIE
Kind of assay: in vitro falcipain-2 inhibition assay (fluorogenic substrate Z-Leu-Arg-AMC). In kind it is biochemical. As to conditions: recombinant falcipain-2 30 nM, pH 5.5, substrate Z-Leu-Arg-AMC 25 μM; for Inhibition rate: at 10 μM concentration level; for IC50: 30 min preincubation, determined if inhibition rate larger than 20% at 10 μM. How it is done: The in vitro P. falciparum falcipain-2 inhibition assay against was carried out according to a previously reported method by taking N-(L-3-trans-carboxyoxiran-2-carbonyl)-L-leucyl)-amido(4-guanido)butane (E-64) as a positive control and DMSO as a negative control. Falcipain-2 could hydrolyse the fluorogenic substrate benzyloxycarbonyl-Leu-Arg-7-amino-4-methylcoumarin (Z-Leu-Arg-AMC) to produce coumarin and its activity could be evaluated by monitoring the fluorescence of the coumarin.
Recombinant falcipain-2 (30 nM) was incubated for 30 min at room temperature in 100 mM NaOAc, pH 5.5, 10 mM dithiothreitol (DTT), with different concentrations of 10a-l and 12a-f. These solutions were prepared from stock in DMSO (maximum concentration of DMSO in the assay was 1%). After incubation, the substrate Z-Leu-Arg-AMC with the same buffer was added to a final concentration of 25 μM. The increase in fluorescence (excitation at 355 nm and emission at 460 nm) was monitored for 30 min at room temperature with an automated microplate spectrofluorimeter (Biotek, Synergy 2). IC50 values were determined from plots of percent activity over compound concentration using the GraphPad Prism software if inhibition rates were larger than 20% at 10 μM concentration level.

In general, IC50 refers to the concentration at which inhibition is half-maximal. With `CC(C)C[C@H](NC(=O)[C@H]1O[C@@H]1C(=O)O)C(=O)NCCCCN=C(N)N` (relative stereo) [Compound E-64, reference compound], the Inhibition rate stood at 100.0% and the IC50 stood at 19.7 nM.
In the same order, the values of `CC1CCC2C(C)[C@@H](Oc3ccc(C=NNC(=S)Nc4ccccc4F)cc3)OC3OC4(C)CCC1C32OO4` (stereo partly drawn) [Compound 10a, 4-[(10S)-Dihydroartemisinin-10-oxy]benzaldehyde N^4-(2-fluorophenyl)thiosemicarbazone] are 72.48% and 2510 nM.
In the case of `CC1CCC2C(C)[C@@H](Oc3ccc(C=NNC(=S)Nc4ccc(F)cc4)cc3)OC3OC4(C)CCC1C32OO4` (stereo partly drawn) [Compound 10b, 4-[(10S)-Dihydroartemisinin-10-oxy]benzaldehyde N^4-(4-fluorophenyl)thiosemicarbazone], the Inhibition rate amounted to 59.76% and the IC50 worked out at 2170 nM.
Taken in the same sequence, the figures for `CCOc1ccc(NC(=S)NN=Cc2ccc(O[C@H]3OC4OC5(C)CCC6C(C)CCC(C3C)C46OO5)cc2)cc1` (stereo partly drawn) [Compound 10c, 4-[(10S)-Dihydroartemisinin-10-oxy]benzaldehyde N^4-(4-ethoxyphenyl)thiosemicarbazone] were 87.42% and 520 nM.
Take `Cc1ccc(C)c(NC(=S)NN=Cc2ccc(O[C@H]3OC4OC5(C)CCC6C(C)CCC(C3C)C46OO5)cc2)c1` (stereo partly drawn) [Compound 10d, 4-[(10S)-Dihydroartemisinin-10-oxy]benzaldehyde N^4-(2,5-dimethylphenyl)thiosemicarbazone]: the Inhibition rate is given as 75.28% and the IC50 turned out to be 550 nM.
As for `Cc1cc(C)cc(NC(=S)NN=Cc2ccc(O[C@H]3O[C@@H]4O[C@@]5(C)CC[C@H]6[C@H](C)CC[C@@H]([C@H]3C)[C@@]46OO5)cc2)c1` [Compound 10e, 4-[(10S)-Dihydroartemisinin-10-oxy]benzaldehyde N^4-(3,5-dimethylphenyl)thiosemicarbazone], the Inhibition rate turned out to be 74.06% and the IC50 stood at 1350 nM.
Taken in the same sequence, the figures for `Cc1c(Cl)cccc1NC(=S)NN=Cc1ccc(O[C@H]2OC3OC4(C)CCC5C(C)CCC(C2C)C35OO4)cc1` (stereo partly drawn) [Compound 10f, 4-[(10S)-Dihydroartemisinin-10-oxy]benzaldehyde N^4-(3-chloro-2-methylphenyl)thiosemicarbazone] were 75.62% and 984 nM.
Taken in the same sequence, the figures for `CC1CCC2C(C)[C@@H](Oc3ccc(C=NNC(=O)Nc4ccccc4F)cc3)OC3OC4(C)CCC1C32OO4` (stereo partly drawn) [Compound 10g, 4-[(10S)-Dihydroartemisinin-10-oxy]benzaldehyde N^4-(2-fluorophenyl)semicarbazone] were 76.74% and 2250 nM.
Taken in the same sequence, the figures for `CC1CCC2C(C)[C@@H](Oc3ccc(C=NNC(=O)Nc4ccc(F)cc4)cc3)OC3OC4(C)CCC1C32OO4` (stereo partly drawn) [Compound 10h, 4-[(10S)-Dihydroartemisinin-10-oxy]benzaldehyde N^4-(4-fluorophenyl)semicarbazone] were 84.60% and 1020 nM.
`CCOc1ccc(NC(=O)NN=Cc2ccc(O[C@H]3OC4OC5(C)CCC6C(C)CCC(C3C)C46OO5)cc2)cc1` (stereo partly drawn) [Compound 10i, 4-[(10S)-Dihydroartemisinin-10-oxy]benzaldehyde N^4-(4-ethoxyphenyl)semicarbazone]: the Inhibition rate is listed as 72.70% and the 50% inhibitory concentration (IC50) worked out at 700 nM.
In the same order, the values of `Cc1ccc(C)c(NC(=O)NN=Cc2ccc(O[C@H]3OC4OC5(C)CCC6C(C)CCC(C3C)C46OO5)cc2)c1` (stereo partly drawn) [Compound 10j, 4-[(10S)-Dihydroartemisinin-10-oxy]benzaldehyde N^4-(2,5-dimethylphenyl)semicarbazone] are 59.01% and 2280 nM.
Taken in the same sequence, the figures for `Cc1cc(C)cc(NC(=O)NN=Cc2ccc(O[C@H]3O[C@@H]4O[C@@]5(C)CC[C@H]6[C@H](C)CC[C@@H]([C@H]3C)[C@@]46OO5)cc2)c1` [Compound 10k, 4-[(10S)-Dihydroartemisinin-10-oxy]benzaldehyde N^4-(3,5-dimethylphenyl)semicarbazone] were 87.88% and 1030 nM.
Taken in the same sequence, the figures for `Cc1c(Cl)cccc1NC(=O)NN=Cc1ccc(O[C@H]2OC3OC4(C)CCC5C(C)CCC(C2C)C35OO4)cc1` (stereo partly drawn) [Compound 10l, 4-[(10S)-Dihydroartemisinin-10-oxy]benzaldehyde N^4-(3-chloro-2-methylphenyl)semicarbazone] were 81.82% and 2540 nM.
Turning to `CC1CCC2C(C)[C@H](OC(=O)c3ccc(C=NNC(=O)Nc4ccccc4F)cc3)OC3OC4(C)CCC1C32OO4` (stereo partly drawn) [Compound 12a, 4-[(10S)-Dihydroartemisinin-10-oxycarbonyl]benzaldehyde N^4-(2-fluorophenyl)semicarbazone], the Inhibition rate amounted to 79.32% and the IC50 came to 470 nM.
As to `CC1CCC2C(C)[C@H](OC(=O)c3ccc(C=NNC(=O)Nc4ccc(F)cc4)cc3)OC3OC4(C)CCC1C32OO4` (stereo partly drawn) [Compound 12b, 4-[(10S)-Dihydroartemisinin-10-oxycarbonyl]benzaldehyde N^4-(4-fluorophenyl)semicarbazone], the Inhibition rate is 69.25% and the IC50 was 650 nM.
In the same order, the values of `CCOc1ccc(NC(=O)NN=Cc2ccc(C(=O)O[C@@H]3OC4OC5(C)CCC6C(C)CCC(C3C)C46OO5)cc2)cc1` (stereo partly drawn) [Compound 12c, 4-[(10S)-Dihydroartemisinin-10-oxycarbonyl]benzaldehyde N^4-(4-ethoxyphenyl)semicarbazone] are 75.89% and 290 nM.
With `Cc1ccc(C)c(NC(=O)NN=Cc2ccc(C(=O)O[C@@H]3OC4OC5(C)CCC6C(C)CCC(C3C)C46OO5)cc2)c1` (stereo partly drawn) [Compound 12d, 4-[(10S)-Dihydroartemisinin-10-oxycarbonyl]benzaldehyde N^4-(2,5-dimethylphenyl)semicarbazone], the Inhibition rate came out at 76.61% and the IC50 is 2960 nM.
In the same order, the values of `Cc1cc(C)cc(NC(=O)NN=Cc2ccc(C(=O)O[C@@H]3O[C@@H]4O[C@@]5(C)CC[C@H]6[C@H](C)CC[C@@H]([C@H]3C)[C@@]46OO5)cc2)c1` [Compound 12e, 4-[(10S)-Dihydroartemisinin-10-oxycarbonyl]benzaldehyde N^4-(3,5-dimethylphenyl)semicarbazone] are 71.62% and 570 nM.
In the case of `Cc1c(Cl)cccc1NC(=O)NN=Cc1ccc(C(=O)O[C@@H]2OC3OC4(C)CCC5C(C)CCC(C2C)C35OO4)cc1` (stereo partly drawn) [Compound 12f, 4-[(10S)-Dihydroartemisinin-10-oxycarbonyl]benzaldehyde N^4-(3-chloro-2-methylphenyl)semicarbaz-one], the Inhibition rate was 74.67% and the IC50 came out at 10600 nM.

For the origin of these results see article PMC6264262, “Synthesis and Antimalarial Activity of Novel Dihydro-Artemisinin Derivatives” (Molecules, 2011).
